Assay in all cases: inhibition of tumour cell growth, NCI panel, 48 h
Experiment [1] has as its system NCI-H226 lung.
For experiment [2], the system named is MDA-MB-231 breast.
Experiment [3] concerns SN12C renal.
The test system of experiment [4] is MOLT-4 leukemia.
Experiment [5] concerns SR leukemia.
Experiment [6] relates to SF-539 CNS.
In experiment [7] the test system is UO-31 renal.
Experiment [8] has as its system NCI/ADR-RES ovarian.
In experiment [9] the test system is SF-295 CNS.
For experiment [10], the system named is DU-145 prostate.

These results are taken from PubChem BioAssay (NCI).

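The compound was tested at five concentrations on cells cultured in 96-well plates, with a 48-hour exposure period. At the GI50, growth is halved. Definition used: TGI = concentration required for complete inhibition of growth.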

Consider `CN1CCN(c2ccc3nc4c(nc3c2C(F)(F)F)C(=O)c2ncccc2C4=O)CC1`, for which the GI50 in experiment [1] is 2.13 µM; in [2] it was 2.54 µM; in [3], 1.44 µM; in experiment [4], 2.28 µM; in experiment [5], 0.446 µM; in experiment [6], 1.51 µM. In addition, the GI50 in experiment [7] was 1.33 µM; in experiment [8] it was 2.33 µM; in experiment [9], 1.27 µM; in [10] it was 1.23 µM. Further, the TGI in [1] was 4.74 µM; in [2], 7 µM; in [3] it was 2.91 µM; in experiment [4], 5.52 µM; in [5], over 100 µM; in experiment [6], 2.85 µM. Further, the TGI in experiment [7] was determined as 2.84 µM; in experiment [8], 6.94 µM; in experiment [9], 2.58 µM; in experiment [10], 2.6 µM.

As to `COc1ccc(-c2cncn2-c2cc(OC)c(OC)c(OC)c2)cc1F`, the GI50 was 21.5 µM in experiment [1]; 0.103 µM in [2]; 0.789 µM in experiment [3]; under 0.0283 µM in [4]; under 0.01 µM in [5]; under 0.0232 µM in experiment [6]. For the same compound, the GI50 was 0.0717 µM in experiment [7], 0.0108 µM in experiment [8], under 0.0142 µM in experiment [9] and under 0.0342 µM in experiment [10]. The TGI was over 100 µM in [1]; over 100 µM in experiment [2]; over 100 µM in experiment [3]; over 100 µM in experiment [4]; 64.8 µM in experiment [7]; over 100 µM in experiment [8]. In experiment [10], this compound came in with a TGI of over 100 µM.

In the case of `Cc1c(N2C(=O)/C(=C\c3ccc(N(C)C)cc3)N=C2c2ccccc2)c(=O)n(-c2ccccc2)n1C`, the GI50 in experiment [1] is 72.2 µM; in experiment [2] it was over 82.9 µM; in [3], over 100 µM; in experiment [4] it was 7.85 µM; in experiment [5], 58.8 µM; in [6], over 100 µM. Besides, the GI50 in experiment [7] was 40.6 µM; in [8] it was 99.5 µM; in [9], 92 µM; in [10], 71.3 µM. Moreover, the TGI in experiment [1], in experiment [2], in [3], in experiment [4], in [5] and in experiment [6] was over 100 µM each time. The TGI in experiment [7], in [8], in experiment [9] and in [10] was over 100 µM each time.

With `CSc1ccc(C2=NN(C(=O)c3ccc(N)cc3)C(c3ccc(F)cc3)C2)cc1` (centres undefined), the GI50 is 11 µM in experiment [1]; 12.6 µM in experiment [2]; 2.49 µM in [3]; 10.5 µM in experiment [4]; 1.52 µM in [5]; 15.6 µM in [6]. Also, the GI50 was 10.6 µM in [7], 16.1 µM in experiment [8], 13.2 µM in experiment [9] and 10.6 µM in experiment [10]. Besides, the TGI turned out to be 29.6 µM in experiment [1]; 30.6 µM in experiment [2]; 10.2 µM in experiment [3]; 38.2 µM in [4]; 4.31 µM in experiment [5]; 32.4 µM in experiment [6]. Also, the TGI in [7] stood at 24 µM; in experiment [8], 38.5 µM; in experiment [9], 27.9 µM; in [10], 24 µM.

On to `N#CC[C@H](C1CCCC1)n1cc(-c2ncnc3[nH]ccc23)cn1`, for which the GI50 in experiment [1] is 9.28 µM; in experiment [2] it was 23.9 µM; in experiment [3] it was 22.1 µM; in experiment [4] it was 20.7 µM; in experiment [5], 4.04 µM; in experiment [6] it was 16.7 µM. Moreover, the GI50 was 4.53 µM in experiment [7], 19.4 µM in experiment [8], 19.4 µM in experiment [9] and 19.3 µM in experiment [10]. Also, the TGI in [1] is over 92.5 µM; in experiment [2] it was over 100 µM; in experiment [3], over 100 µM; in [4], over 78.8 µM; in [5], 41.6 µM; in [6], 62.7 µM. Besides, the TGI is 82 µM in experiment [7], over 100 µM in experiment [8], 51.4 µM in experiment [9] and over 100 µM in [10].

Consider `CNCCOc1nc2c3cnccc3cc(-c3cc(OC)c(OC)c(OC)c3)c2c2ccncc12`, for which the GI50 was 0.054 µM in experiment [1]; 0.0765 µM in [2]; 0.0199 µM in [3]; under 0.01 µM in experiment [4]; under 0.01 µM in experiment [5]; 0.0438 µM in [6]. In addition, the GI50 was 0.0302 µM in experiment [7], 0.344 µM in [8], 0.0211 µM in experiment [9] and 0.022 µM in experiment [10]. In addition, the TGI in experiment [1] came out at 0.37 µM; in experiment [2], 1.18 µM; in [3], 0.0872 µM; in experiment [4], 0.0478 µM; in [6], 0.225 µM; in experiment [7] it was 0.156 µM. For the same compound, the TGI in experiment [8] came out at 2.09 µM; in [9], 0.101 µM; in experiment [10], 0.167 µM.

In the case of `COC(=O)Nc1nc2ccc(Sc3ccccc3)cc2[nH]1`, the GI50 in experiment [1] was 0.291 µM; in experiment [2] it was 0.476 µM; in experiment [3], 0.524 µM; in [4], 0.262 µM; in [5], 0.035 µM; in experiment [6], 0.234 µM. For the same compound, the GI50 was 0.848 µM in experiment [7], 0.0674 µM in experiment [8], 0.152 µM in experiment [9] and 0.336 µM in experiment [10]. The TGI in experiment [1] amounted to 1.7 µM; in experiment [2], 21.5 µM; in [3], 25.7 µM; in experiment [6], 0.933 µM; in experiment [7], 20.5 µM; in experiment [8], 0.461 µM. The TGI in experiment [9] worked out at 19.9 µM; in experiment [10] it was 10.8 µM.

With `CCN(CC)c1ccc2nc3c4ccccc4c(=NC(=O)c4ccccc4-c4c5ccc(N(CC)CC)cc5[o+]c5cc(N(CC)CC)ccc45)cc-3oc2c1`, the GI50 in [1] was 15.4 µM; in experiment [2] it was 1.99 µM; in experiment [3] it was 2.13 µM; in experiment [4] it was 1.81 µM; in experiment [5], 2.74 µM; in experiment [6] it was 3.24 µM. In addition, the GI50 is 1.49 µM in [7], 2.19 µM in experiment [8], 2.96 µM in experiment [9] and 1.75 µM in [10]. Besides, the TGI in [1] was 38.8 µM; in experiment [2] it was 8.91 µM; in [3] it was 6.14 µM; in experiment [4], over 100 µM; in [5], 20.5 µM; in experiment [6], 8.73 µM. For the same compound, the TGI in [7] is 15 µM; in experiment [8], 10.6 µM; in [9] it was 14.2 µM; in experiment [10], 3.46 µM.

On to `O=[N+]([O-])c1ccc(-c2ccccc2)c([As](=O)(O)O)c1`, for which the GI50 in experiment [1] is 18.5 µM; in [2], 10 µM; in experiment [3], 12.7 µM; in experiment [4], 19.9 µM; in [5], 10.3 µM; in [6] it was 13 µM. For the same compound, the GI50 in [7] is 12.3 µM; in experiment [8], 22.6 µM; in experiment [9], 22.3 µM; in experiment [10], 11.3 µM. The TGI in experiment [1] is 69.4 µM; in [2] it was 37.4 µM; in experiment [3], over 100 µM; in experiment [4] it was over 100 µM; in experiment [5], 57.3 µM; in [6] it was 44.6 µM. The TGI in [7] is 44.8 µM; in experiment [8], over 100 µM; in experiment [9], over 100 µM; in [10], 29 µM.

For the compound `CC(=O)N[C@@H](Cc1ccc(OP(=O)(O)O)cc1)C(=O)N[C@H]1CCC(=O)N2CCC[C@@H](C(=O)NCc3ccc(O)cc3)N2C1=O`, the GI50 in experiment [1], in experiment [2], in [3], in [4], in experiment [5] and in experiment [6] was over 25 µM in each case. Moreover, the GI50 was 24.2 µM in [7], over 25 µM in experiment [8], over 25 µM in [9] and over 25 µM in experiment [10]. The TGI in experiment [1], in experiment [2], in [3], in experiment [4], in experiment [5] and in experiment [6] was over 25 µM each time. The TGI in experiment [7], in experiment [8], in experiment [9] and in [10] was over 25 µM each time.

Regarding `C/C(=N\Nc1cccc(Cl)n1)c1ccccn1`, the GI50 in [1] was 0.978 µM; in [2] it was 0.584 µM; in [3], 0.598 µM; in experiment [4], 0.407 µM; in experiment [5], 0.421 µM; in [6] it was 0.578 µM. For the same compound, the GI50 in experiment [7] was 0.466 µM; in [8] it was 0.441 µM; in experiment [9], 0.827 µM; in experiment [10] it was 0.692 µM. Besides, the TGI in [1] is 6.57 µM; in experiment [2], over 100 µM; in experiment [3] it was over 100 µM; in experiment [4] it was over 100 µM; in experiment [5], over 44.2 µM; in [6], 4.53 µM. In addition, the TGI was 4.33 µM in experiment [7], 12.8 µM in experiment [8], over 32.3 µM in experiment [9] and over 100 µM in experiment [10].
